Where two headings read alike, the source gives them in different places.
How the values were obtained:
TxB2 synthesis = TxB2 synthesis inhibition in vitro in whole blood of normal rats; format: cell-based, normal Sprague Dawley rats; details: Rattus norvegicus, read-out: In vitro effect on TxB2 synthesis in normal rats, IC50 (whole blood)
Description: (§1) The effects of a representative group of compounds of the invention were evaluated, in comparison with known compounds, on TxB2 synthesis inhibition in vitro in whole blood of normal rats, and on TxA2 antagonism in a binding assay in washed human platelets.
TxB2 Synthesis Inhibition
Blood was withdrawn from the abdominal aorta of normal Sprague Dawley rats (Charles River Italy) under light ether anaesthesia. The blood was immediately divided in portions of 0.5 ml and distributed in glass tubes each containing a concentration of the test compound, or of the reference compounds.
Samples were then allowed to clot for 1 hour at 37° C., centrifuged at 3000 rpm for 10 min, and serum collected and stored at -20° C. until assayed.

TXA2 receptor = biological target: T1, TXA2 receptor (Homo sapiens, UniProt P21731); experiment: Displacement of [^3 H]-SQ 29.548 binding to washed human platelets (TxA2 antagonism); details: for affinity for the receptor: in words, compared with BM 13505 and BM 13177, binding test (washed human platelets); for IC50: washed human platelets, [^3 H]-SQ 29,548 5 nM, 30 min at 25° C., read-out: ^3 H SQ 29548 binding displacement (washed human platelet) IC50
T1 construct: endogenous in cells; host or cells: washed human platelets from blood of healthy volunteers
T1 sequence (P21731 1-343): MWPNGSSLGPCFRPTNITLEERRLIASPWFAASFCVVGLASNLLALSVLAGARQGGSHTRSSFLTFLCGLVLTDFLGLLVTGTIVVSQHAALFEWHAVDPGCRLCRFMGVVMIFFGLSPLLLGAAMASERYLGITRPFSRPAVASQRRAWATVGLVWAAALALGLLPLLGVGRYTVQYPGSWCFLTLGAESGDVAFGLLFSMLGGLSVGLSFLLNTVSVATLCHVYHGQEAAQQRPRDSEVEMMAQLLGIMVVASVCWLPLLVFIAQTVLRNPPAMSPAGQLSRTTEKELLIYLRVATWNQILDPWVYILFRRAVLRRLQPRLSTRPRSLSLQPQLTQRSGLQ
Description: as §1
Displacement of [^3 H]-SQ 29.548 binding to washed human platelets
Blood from healthy volunteers of both sexes who had not taken any medication for at least 10 days was collected into one-tenth volume of acid citrate dextrose containing indomethacin (28 μM). Platelet rich plasma (PRP), obtained by centrifugation of the blood at 200×g for 20 min, was washed twice (1000×g for 10 min). The platelets are then resuspended in Tyrode-Hepes buffer (pH 7.4) to a final concentration of […] and incubated for 0-60 min at 25° with [^3 H]-SQ 29,548 (5 nM). For displacement experiments various concentrations (10^-9 -10^-4 M) of competing ligands were added and incubated for 30 min at 25° C. […] After the incubation, 4 ml of ice-cold TRIS-HCl buffer (10 mM, pH 7.4) was added to each tube and the reaction mixture was immediately filtered by suction through a Whatman GF/C glass filter disc which was washed 2 times with ice-cold TRIS-HCl (4 ml) and counted for radioactivity by a Packard β-counter.
The binding data were analysed by computerized non-linear curve fitting using the Ligand program and expressed as IC50.

[1] = whole blood of normal rats, clotted 1 hour at 37° C.

Row | IC50 (TXA2 receptor) [nM] | Compound | IC50 (TxB2 synthesis; 1 h) [nM] | IC50 (TxB2 synthesis; [1]) [nM] | affinity for the receptor (TXA2 receptor)
1 | – | CC(=O)Oc1ccccc1C(=O)O [ASA, acetylsalicilic acid] | 31000 | – | –
2 | – | O=C(O)c1ccc(OCCn2ccnc2)cc1 [Dazoxiben] | – | 1200 | –
3 | 6.6 | O=C(O)CC1CCCc2c1n(Cc1ccc(-n3ccnc3)cc1)c1ccc(F)cc21 (stereo not shown) [FCE 26643, 6-Fluoro-9-[[4-(1H-imidazol-1-yl)phenyl]methyl]-1,2,3,4-tetrahydrocarbazol-1-yl-acetic acid] | – | – | affinity for the receptor greater than those of compounds BM 13505 and BM 13177
4 | 6 | O=C(O)CC1CCCc2c(n(Cc3ccc(-n4ccnc4)cc3)c3ccc(F)cc23)C1 (stereo not shown) [FCE 27041, 2-Fluoro-5-[[4-(1H-imidazol-1-yl)phenyl]methyl]-5,6,7,8,9,10-hexahydrocyclohept[b]indole-7-acetic acid] | – | 198 | affinity for the receptor greater than those of compounds BM 13505 and BM 13177

Source: patent US5238953A, “N-imidazolyl derivatives of substituted tetrahydrocarbazole and cyclohept (B) indole” (Farmitalia Carlo Erba S.R.L., priority 1991, dated 1993)
